Patent publication US20100029755A1, “P-Glycoprotein inhibitor comprising octilonium bromide as an effective ingredient” (priority 2002, published 2010)
Like-named read-outs stand apart in the source and are kept apart here.

Legend:
p-glycoprotein [1] = details: SD, rat, 1 h, pH 6.4
p-glycoprotein [2] = details: SD, rat, 1 h, 10 μg/ml, pH 6.4
[3] = administered orally; cited from earlier work

Row | SMILES | absorbed amount of the doxorubicin (p-glycoprotein [1]; 50 μg/ml) | absorbed doxorubicin as % of the total applied amount (p-glycoprotein [1]; 50 μg/ml) | absorbed rhodamine 123 as % of the total applied amount (p-glycoprotein [2]) | amount of the absorbed rhodamine 123 (p-glycoprotein [2]) | increase of the amount of absorbed rhodamine by octylonium bromide (p-glycoprotein [2]) | fraction of octylonium bromide absorbed systemically [3] | fraction of octylonium bromide remaining in the gastrointestinal tract [3] | absorbed amount of the doxorubicin (p-glycoprotein [1]; 200 μg/ml) | absorbed doxorubicin as % of the total applied amount (p-glycoprotein [1]; 200 μg/ml) | increase of the amount of absorbed doxorubicin by octylonium bromide (p-glycoprotein [1]; 200 μg/ml)
1 | COc1cccc2c1C(=O)c1c(O)c3c(c(O)c1C2=O)C[C@@](O)(C(=O)CO)C[C@@H]3O[C@H]1C[C@H](N)[C@H](O)[C@H](C)O1 [doxorubicin] | 0.4 μg/g tissue | 0.12% |  |  |  |  |  |  |  | 
2 | CCCCCCCCOc1ccccc1C(=O)Nc1ccc(C(=O)OCC[N+](C)(CC)CC)cc1 [octylonium bromide] |  |  | 14.5% | 4.3 μg/g tissue | 4.5 folds | 5% | 95% | 11 μg/g tissue | 3.3% | 28 folds
